Numbered stars: 1 amine (or outer) side, 2 acyl side, 3 side chain; on linkers, the order of the positions; unused ones are H or OH. Bridge positions count the residues as written; N and C are the ends. Square brackets hold non-standard residues; d marks the D form. Peptide text beside a SMILES is read from it. * marks the point of attachment. C20 diacid = O=C(O)CCCCCCCCCCCCCCCCCCC(=O)*; βAsp = O=C(O)[C@H](CC(=O)[*:2])N[*:1]; Hyp = O=C(O)[C@@H]1C[C@@H](O)CN1; AEEA = NCCOCCOCC(=O)O; Inp = O=C(O)C1CCNCC1
Biological target: T1, human amylin receptor (Homo sapiens, UniProt O60896+P30988)
T1 construct: host or cells: CHO-K1/Ga15/AMY3 cells, further stably transfected with a CRE-luciferase plasmid
T1 sequence (P30988 25-474): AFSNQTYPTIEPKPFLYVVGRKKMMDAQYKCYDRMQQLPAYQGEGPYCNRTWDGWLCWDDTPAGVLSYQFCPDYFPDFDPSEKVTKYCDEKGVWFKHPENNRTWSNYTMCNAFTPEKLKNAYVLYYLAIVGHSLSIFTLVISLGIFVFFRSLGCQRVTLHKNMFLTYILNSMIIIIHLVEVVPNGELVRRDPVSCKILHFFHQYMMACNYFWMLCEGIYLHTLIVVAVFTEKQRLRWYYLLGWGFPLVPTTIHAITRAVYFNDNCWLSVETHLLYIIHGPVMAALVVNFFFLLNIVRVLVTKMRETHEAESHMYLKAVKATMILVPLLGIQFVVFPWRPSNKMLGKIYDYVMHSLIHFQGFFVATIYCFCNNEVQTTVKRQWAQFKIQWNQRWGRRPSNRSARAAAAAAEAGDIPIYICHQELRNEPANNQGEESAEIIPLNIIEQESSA
T1 sequence (O60896 24-148 partner): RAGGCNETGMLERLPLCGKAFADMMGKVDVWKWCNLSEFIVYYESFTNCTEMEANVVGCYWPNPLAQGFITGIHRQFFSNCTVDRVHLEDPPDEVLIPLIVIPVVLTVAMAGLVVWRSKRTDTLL
Experiment: Luciferase assay of amylin derivatives in amylin receptor/CRE-luc CHO cell line
Assay type: cell-based
Details: CHO-K1/Ga15/AMY3 CRE-luc cells, 24 hours incubation, F12 medium containing 10% FBS; read-out: EC50
Procedure: The experiment was intended to detect the activity or efficacy of the amylin derivatives on a human amylin receptor in vitro by luciferase assay.
50 μL of growth medium (F12 medium containing 10% FBS) was added into each well of a white 96-well plate, and the stably transfected amylin/CRE-lue CHO cells were inoculated into the white 96-well plate at a density of about 20,000 cells/well for activity determination.

Row | EC50 [nM] | Compound
1 | 0.016 | CC[C@H](C)[C@H](NC(=O)[C@@H]1CCCN1C(=O)[C@H](CCCCN)NC(=O)[C@H](CC(C)C)NC(=O)[C@H](CC(N)=O)NC(=O)[C@H](CC(N)=O)NC(=O)[C@H](CO)NC(=O)[C@H](CO)NC(=O)[C@H](Cc1c[nH]cn1)NC(=O)[C@H](CCCNC(=N)N)NC(=O)[C@H](CC(C)C)NC(=O)[C@H](Cc1ccccc1)NC(=O)[C@H](CC(=O)O)NC(=O)[C@H](C)NC(=O)[C@H](CC(C)C)NC(=O)[C@H](CCCNC(=N)N)NC(=O)[C@H](CCC(N)=O)NC(=O)[C@@H](NC(=O)[C@H](C)NC(=O)[C@@H]1CSSC[C@H](NC(=O)[C@H](CCCCN)NC(=O)C2CCN(C(=O)COCCOCCNC(=O)COCCOCCNC(=O)CCCCCCCCCCCCCCCCCCC(=O)O)CC2)C(=O)N[C@@H](CC(N)=O)C(=O)N[C@@H]([C@@H](C)O)C(=O)N[C@@H](C)C(=O)N[C@@H]([C@@H](C)O)C(=O)N1)[C@@H](C)O)C(=O)N[C@@H](CC(C)C)C(=O)N1CCC[C@H]1C(=O)N1CCC[C@H]1C(=O)N[C@H](C(=O)N[C@@H](CC(N)=O)C(=O)N[C@H](C(=O)NCC(=O)N[C@@H](CO)C(=O)N[C@@H](CC(N)=O)C(=O)N[C@H](C(=O)N1C[C@H](O)C[C@H]1C(N)=O)[C@@H](C)O)C(C)C)[C@@H](C)O [PD180] ({C20 diacid-AEEA-AEEA-Inp}-KCNTATCATQRLADFLRHSSNNLKPILPPTNVGSNT[Hyp]-NH2; disulfide 2-7)
2 | 0.034 | CC[C@H](C)[C@H](NC(=O)[C@@H]1CCCN1C(=O)[C@H](CCCCN)NC(=O)[C@H](CC(C)C)NC(=O)[C@H](CC(N)=O)NC(=O)[C@H](CC(N)=O)NC(=O)[C@H](CO)NC(=O)[C@H](CO)NC(=O)[C@H](Cc1c[nH]cn1)NC(=O)[C@H](CCCNC(=N)N)NC(=O)[C@H](CC(C)C)NC(=O)[C@H](Cc1ccccc1)NC(=O)[C@H](CC(=O)O)NC(=O)[C@H](C)NC(=O)[C@H](CC(C)C)NC(=O)[C@H](CCCNC(=N)N)NC(=O)[C@H](CCC(N)=O)NC(=O)[C@@H](NC(=O)[C@H](C)NC(=O)[C@@H]1CSSC[C@H](NC(=O)[C@H](CCCCN)NC(=O)[C@H](CC(=O)O)NC(=O)COCCOCCNC(=O)COCCOCCNC(=O)CCCCCCCCCCCCCCCCCCC(=O)O)C(=O)N[C@@H](CC(N)=O)C(=O)N[C@@H]([C@@H](C)O)C(=O)N[C@@H](C)C(=O)N[C@@H]([C@@H](C)O)C(=O)N1)[C@@H](C)O)C(=O)N[C@@H](CC(C)C)C(=O)N1CCC[C@H]1C(=O)N1CCC[C@H]1C(=O)N[C@H](C(=O)N[C@@H](CC(N)=O)C(=O)N[C@H](C(=O)NCC(=O)N[C@@H](CO)C(=O)N[C@@H](CC(N)=O)C(=O)N[C@H](C(=O)N1C[C@H](O)C[C@H]1C(N)=O)[C@@H](C)O)C(C)C)[C@@H](C)O [PD182] ({C20 diacid-AEEA-AEEA}-DKCNTATCATQRLADFLRHSSNNLKPILPPTNVGSNT[Hyp]-NH2; disulfide 3-8)
3 | 0.04 | CC[C@H](C)[C@H](NC(=O)[C@@H]1CCCN1C(=O)[C@H](CCCCN)NC(=O)[C@H](CC(C)C)NC(=O)[C@H](CC(N)=O)NC(=O)[C@H](CC(N)=O)NC(=O)[C@H](CO)NC(=O)[C@H](CO)NC(=O)[C@H](Cc1c[nH]cn1)NC(=O)[C@H](CCCNC(=N)N)NC(=O)[C@H](CC(C)C)NC(=O)[C@H](Cc1ccccc1)NC(=O)[C@H](CC(=O)O)NC(=O)[C@H](C)NC(=O)[C@H](CC(C)C)NC(=O)[C@H](CCCNC(=N)N)NC(=O)[C@H](CCC(N)=O)NC(=O)[C@@H](NC(=O)[C@H](C)NC(=O)[C@@H]1CSSC[C@H](NC(=O)[C@H](CCCCN)NC(=O)COCCOCCNC(=O)COCCOCCNC(=O)C[C@H](NC(=O)CCCCCCCCCCCCCCCCCCC(=O)O)C(=O)O)C(=O)N[C@@H](CC(N)=O)C(=O)N[C@@H]([C@@H](C)O)C(=O)N[C@@H](C)C(=O)N[C@@H]([C@@H](C)O)C(=O)N1)[C@@H](C)O)C(=O)N[C@@H](CC(C)C)C(=O)N1CCC[C@H]1C(=O)N1CCC[C@H]1C(=O)N[C@H](C(=O)N[C@@H](CC(N)=O)C(=O)N[C@H](C(=O)NCC(=O)N[C@@H](CO)C(=O)N[C@@H](CC(N)=O)C(=O)N[C@H](C(=O)N1C[C@H](O)C[C@H]1C(N)=O)[C@@H](C)O)C(C)C)[C@@H](C)O [PD183] ({C20 diacid-βAsp-AEEA-AEEA}-KCNTATCATQRLADFLRHSSNNLKPILPPTNVGSNT[Hyp]-NH2; disulfide 2-7)

Reference: patent publication US20260166128A1, “HUMAN AMYLIN ANALOG, AND DERIVATIVE THEREOF AND USE THEREOF” (priority 2022, published 2026)
